According to patent publication US20060247421A1, “Liver x receptor alpha splicing mutant protein, gene thereof and utilization of the same” (priority 2003, published 2006):

Tested on: liver X receptor α splicing mutant proteins (D5, 5A and 6A)
Assay: Reporter assay in a transient expression system in HEK293 cells (TATA-LXREx4-luciferase), ligand-dependent transcription activating ability
Assay type: cell-based, human
Settings: three kinds of liver X receptor α splicing mutant proteins
Experimental: FIG. 5 is a view showing the results of assessment of the function of liver X receptor α splicing mutant proteins (D5, 5A and 6A) by a reporter assay in a transient expression system in HEK293 cells. […] A non-treated section is represented by white, a 1 μg/ml 22R-hydroxycholesterol-treated section is represented by black, and a 1 μg/ml 25-hydroxycholesterol-treated section is represented by gray. In addition, in each test section, 1 μM 9-cis retinoic acid is contained. Letting a value of luciferase activity in a control section (control) in which only a solvent was added to be 100%, a value of luciferase activity in each test section is shown as a relative value. WT means a normal liver X receptor α.
A human fetal kidney-derived HEK293 cell strain (ATCC; CRL-1573) was subcultured in a Dulbecco modified Eagle medium (DMEM) containing 10% bovine fetal serum (FBS) from which low-molecular substances had been removed with charcoal dextran, and penicillin (100 unit/ml) and streptomycin ([…]) as an antibiotic, and not containing phenol red at 37° C. under the presence of 5% CO2. The subcultured HEK293 cell strain was seeded on a 10 cm cell culturing dish to about 2×10^6 cells. […]

CC(C)CC[C@@H](O)[C@@H](C)[C@H]1CC[C@H]2[C@@H]3CC=C4C[C@@H](O)CC[C@]4(C)[C@H]3CC[C@]12C [22R-oxycholesterol]
transcription activating ability depending on ligand, as compared with that of a normal liver X receptor α: extremely weak or not recognized level
